A value given as a limit tells only on which side of the number the result lay.

Results on five compounds are retold here after ChEMBL document CHEMBL4715844, “Structure-based virtual screening and biological evaluation of novel non-bisphosphonate farnesyl pyrophosphate synthase inhibitors” (Eur J Med Chem, 2020).

Test [1] has as its target T1, Farnesyl pyrophosphate synthase (Rattus norvegicus) (UniProt P05369).
T1 sequence (whole entry): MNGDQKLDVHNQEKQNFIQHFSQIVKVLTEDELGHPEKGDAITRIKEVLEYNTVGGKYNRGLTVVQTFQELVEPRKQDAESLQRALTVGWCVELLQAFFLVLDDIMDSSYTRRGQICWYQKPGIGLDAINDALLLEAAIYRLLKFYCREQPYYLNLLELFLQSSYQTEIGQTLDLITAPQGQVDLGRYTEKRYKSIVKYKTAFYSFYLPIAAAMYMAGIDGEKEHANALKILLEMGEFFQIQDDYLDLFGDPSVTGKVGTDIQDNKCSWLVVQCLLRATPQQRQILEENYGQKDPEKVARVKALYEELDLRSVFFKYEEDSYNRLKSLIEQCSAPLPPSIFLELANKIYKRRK
Description: Inhibition of rat FPPS expressed in Escherichia coli BL21 (DE3) using GPP and IPP as substrate at 10 uM incubated for 10 mins by microplate reader.

Test [2] deals with T2, Farnesyl pyrophosphate synthase (Rattus norvegicus, UniProt P05369).
T2 sequence (P05369 whole entry): T1 sequence (whole entry)
Put plainly: Binding affinity to rat FPPS expressed in Escherichia coli BL21 (DE3) by isothermal titration calorimetry. (Isothermal titration calorimetry measures the heat released or taken up as one component is titrated into another.)

The subject of test [3] is LoVo. Description: Cytotoxicity against FPPS-positive human Lovo cells assessed as reduction in cell viability measured after 48 hrs by MTT assay. For orientation: Formazan colour is commonly taken as a measure of viable cells.
Test [4] concerns HCT-116. Put plainly: Cytotoxicity against FPPS-positive human HCT116 cells assessed as reduction in cell viability measured after 48 hrs by MTT assay. The note with it: HCT-116, 48 h.
The subject of test [5] is MDA-MB-231. Put plainly: Cytotoxicity against FPPS-negative human MDA-MB-231 cells assessed as reduction in cell viability measured after 48 hrs by MTT assay. It is filed as functional, cell-based. To be noted: MDA-MB-231, 48 h.

What is called inhibition is the percentage by which the read-out fell short of the control. Low readings indicate a response near the control, high ones a response far below the control. By Kd is commonly meant a measure of binding affinity in units of concentration. A lower Kd goes with a tighter complex. With `CC(C)Oc1ccc(CNC(=O)C2CCCN(S(=O)(=O)N3CCOCC3)C2)cc1` (stereo unspecified), in test [1], the inhibition was determined as 28.9%. The same compound gave a Kd in test [2] of 72 µM.
By IC50 is commonly meant the midpoint of a concentration-inhibition curve. In the case of `O=P(O)(O)C(O)(Cn1ccnc1)P(=O)(O)O` [ZOLEDRONIC ACID], the values for the half-inhibitory concentration (IC50) in test [3], in test [4] and in test [5] were 34.9 µM, 61.6 µM and above 100 µM, respectively.
As to `O=Cc1ccc(O[C@@H]2O[C@H](CO)[C@@H](O)[C@H](O)[C@H]2O)cc1`, in test [1], the inhibition stood at 29.3%. Also, the Kd in test [2] was 328 µM.
In turn, `Cc1c(O[C@@H]2O[C@H](CO)[C@@H](O)[C@H](O)[C@H]2O)ccc2c3c(c(=O)oc12)CCCCC3` came in with an inhibition in test [1] of 17.3%. The same compound gave a Kd in test [2] of 53.8 µM.
For `CC(=O)N[C@H]1[C@H](OCc2ccccc2)O[C@H](CO)[C@@H](O)[C@@H]1O` the same measures were 29.9% and 48.1 µM.
